According to ChEMBL document CHEMBL5137054, “Xyloketal B Reverses Nutritional Hepatic Steatosis, Steatohepatitis, and Liver Fibrosis through Activation of the PPARα/PGC1α Signaling Pathway” (J Nat Prod, 2022):
Calls of active or inactive are those of the source. No cut-off for these calls is given here.

Legend:
Mus musculus [1] = experiment: Reduction in hepatic steatosis in HFD-induced C57BL/6J mouse model of NAFL assessed as reduction in HFD-induced relative liver weight at 20 to 40 mg/kg/day, ip administered from week 7 to week 12; type: functional, organism-based; conditions: dose 20-40 mg/kg/day, time 6.0 weeks
Mus musculus [2] = experiment: Reduction in hepatic steatosis in HFD-induced C57BL/6J mouse model of NAFL assessed as reduction in number of lipid droplets in hepatocytes at 20 to 40 mg/kg/day, ip administered from week 7 to week 12 by H&E staining analysis; type: functional, organism-based; conditions: dose 20-40 mg/kg/day, time 6.0 weeks
Mus musculus [3] = experiment: Reduction in hepatic steatosis in HFD-induced C57BL/6J mouse model of NAFL assessed as reduction in size of lipid droplets in hepatocytes at 20 to 40 mg/kg/day, ip administered from week 7 to week 12 by H&E staining analysis; type: functional, organism-based; conditions: dose 20-40 mg/kg/day, time 6.0 weeks
Mus musculus [4] = experiment: Reduction in hepatic steatosis in HFD-induced C57BL/6J mouse model of NAFL assessed as reduction in serum AST/ALT ratio at 20 to 40 mg/kg/day, ip administered from week 7 to week 12; type: functional, organism-based; conditions: dose 20-40 mg/kg/day, time 6.0 weeks
Mus musculus [5] = experiment: Reduction in hepatic steatosis in HFD-induced C57BL/6J mouse model of NAFL assessed as reduction in serum glucose level at 20 to 40 mg/kg/day, ip administered from week 7 to week 12; type: functional, organism-based; conditions: dose 20-40 mg/kg/day, time 6.0 weeks
Mus musculus [6] = experiment: Reduction in hepatic steatosis in HFD-induced C57BL/6J mouse model of NAFL assessed as reduction in serum cholesterol level at 20 to 40 mg/kg/day, ip administered from week 7 to week 12; type: functional, organism-based; conditions: dose 20-40 mg/kg/day, time 6.0 weeks
[7] = Toxicity in C57BL/6J mouse assessed as effect on body weight at 40 mg/kg, ip; type: organism-based; conditions: in vivo
[8] = Toxicity in C57BL/6J mouse assessed as effect on serum AST level at 40 mg/kg, ip; type: organism-based; conditions: in vivo
[9] = Toxicity in C57BL/6J mouse assessed as effect on serum triglyceride level at 40 mg/kg, ip; type: organism-based; conditions: in vivo
Mus musculus [10] = experiment: Upregulation of Acaa1a gene transcriptional level in HFD-induced C57BL/6J mouse model of NAFL at 20 to 40 mg/kg/day, ip administered from week 7 to week 12 by qRT-PCR analysis; type: functional, organism-based; conditions: dose 20-40 mg/kg/day, time 6.0 weeks
Mus musculus [11] = experiment: Upregulation of long-chain specific acyl-CoA dehydrogenase gene transcriptional level in HFD-induced C57BL/6J mouse model of NAFL at 20 to 40 mg/kg/day, ip administered from week 7 to week 12 by qRT-PCR analysis; type: functional, organism-based; conditions: dose 20-40 mg/kg/day, time 6.0 weeks
Mus musculus [12] = experiment: Upregulation of Acox2 gene transcriptional level in HFD-induced C57BL/6J mouse model of NAFL at 20 to 40 mg/kg/day, ip administered from week 7 to week 12 by qRT-PCR analysis; type: functional, organism-based; conditions: dose 20-40 mg/kg/day, time 6.0 weeks
Mus musculus [13] = experiment: Upregulation of peroxisomal bifunctional enzyme gene transcriptional level in HFD-induced C57BL/6J mouse model of NAFL at 20 to 40 mg/kg/day, ip administered from week 7 to week 12 by qRT-PCR analysis; type: functional, organism-based; conditions: dose 20-40 mg/kg/day, time 6.0 weeks
Mus musculus [14] = experiment: Upregulation of Cyp4a14 gene transcriptional level in HFD-induced C57BL/6J mouse model of NAFL at 20 to 40 mg/kg/day, ip administered from week 7 to week 12 by qRT-PCR analysis; type: functional, organism-based; conditions: dose 20-40 mg/kg/day, time 6.0 weeks
Mus musculus [15] = experiment: Upregulation of Cpt1b gene transcriptional level in HFD-induced C57BL/6J mouse model of NAFL at 20 to 40 mg/kg/day, ip administered from week 7 to week 12 by qRT-PCR analysis; type: functional, organism-based; conditions: dose 20-40 mg/kg/day, time 6.0 weeks
Mus musculus [16] = experiment: Upregulation of peroxisomal bifunctional enzyme expression in liver of HFD-induced C57BL/6J mouse model of NAFL administered intraperitoneally from week 7 to week 12 by immunoblotting analysis; type: functional; conditions: dose 20-40 mg/kg/day, route ip, time 6.0 weeks, DDE = dose-dependent effect
Mus musculus [17] = experiment: Upregulation of peroxisomal acyl-coenzyme A oxidase-1 enzyme expression in liver of HFD-induced C57BL/6J mouse model of NAFL at 15 mg/kg/day, ip administered from week 7 to week 12 by immunoblotting analysis; type: functional, organism-based; conditions: time 6.0 weeks
Mus musculus [18] = experiment: Upregulation of peroxisomal acyl-coenzyme A oxidase-2 enzyme expression in liver of HFD-induced C57BL/6J mouse model of NAFL at 15 mg/kg/day, ip administered from week 7 to week 12 by immunoblotting analysis; type: functional, organism-based; conditions: time 6.0 weeks
Mus musculus [19] = experiment: In vivo activation of PPARalpha/PGC1alpha pathway in HFD-induced C57BL/6J mouse model of NAFL assessed as increase in PGC1alpha expression in liver administered intraperitoneally from week 7 to week 12 by immunoblotting analysis; type: functional, organism-based; conditions: dose 20-40 mg/kg/day, route ip, time 6.0 weeks
HepG2 = experiment: Inhibition of FFA-induced lipid accumulation in human HepG2 cells incubated for 24 hrs by Oil Red O staining based spectrophotometric analysis; type: functional, cell-based; conditions: dose 50-100 µM, DDE = dose-dependent effect
Mus musculus [20] = experiment: Anti-inflammatory activity against MCD-induced C57BL/6J mouse model of nonalcoholic steatohepatitis assessed as reduction in necroinflammation foci in liver at 20 to 40 mg/kg/day, ip administered from week 3 to week 4 by H&E staining based light microscopic analysis; type: functional, organism-based; conditions: dose 20-40 mg/kg/day, time 2.0 weeks
Mus musculus [21] = experiment: Anti-inflammatory activity against MCD-induced C57BL/6J mouse model of nonalcoholic steatohepatitis assessed as downregulation of IL1beta expression in liver at 20 to 40 mg/kg/day, ip administered from week 3 to week 4 by immunoblotting analysis; type: functional, organism-based; conditions: dose 20-40 mg/kg/day, time 2.0 weeks
Mus musculus [22] = experiment: Anti-inflammatory activity against MCD-induced C57BL/6J mouse model of nonalcoholic steatohepatitis assessed as downregulation of interleukin 6 expression in liver at 20 to 40 mg/kg/day, ip administered from week 3 to week 4 by immunoblotting analysis analysis; type: functional, organism-based; conditions: dose 20-40 mg/kg/day, time 2.0 weeks
Mus musculus [23] = experiment: Antifibrotic activity against MCD-induced C57BL/6J mouse model of liver fibrosis assessed as reduction in number of collagenous fibers in liver at 20 to 40 mg/kg, ip administered from week 3 to week 6 by masson's trichrome staining based light microscopic analysis; type: functional, organism-based; conditions: dose 20-40 mg/kg, time 4.0 weeks
Mus musculus [24] = experiment: Antifibrotic activity against MCD-induced C57BL/6J mouse model of liver fibrosis assessed as reduction in collagen III level in liver at 20 to 40 mg/kg, ip administered from week 3 to week 6 by sirius red staining based light microscopic analysis; type: functional, organism-based; conditions: dose 20-40 mg/kg, time 4.0 weeks
Mus musculus [25] = experiment: Antifibrotic activity against MCD-induced C57BL/6J mouse model of liver fibrosis assessed as reduction in MMP2 level in liver administered intraperitoneally from week 3 to week 6 by immunoblotting analysis; type: functional, organism-based; conditions: dose 20-40 mg/kg, route ip, time 4.0 weeks, DDE = dose-dependent effect
Mus musculus [26] = experiment: Antifibrotic activity against MCD-induced C57BL/6J mouse model of liver fibrosis assessed as reduction in TIMP1 level in liver administered intraperitoneally from week 3 to week 6 by immunoblotting analysis; type: functional, organism-based; conditions: dose 20-40 mg/kg, route ip, time 4.0 weeks, DDE = dose-dependent effect
Mus musculus [27] = experiment: Antifibrotic activity against MCD-induced C57BL/6J mouse model of liver fibrosis assessed as reduction in TGFbeta level in liver administered intraperitoneally from week 3 to week 6 by immunoblotting analysis; type: functional, organism-based; conditions: dose 20-40 mg/kg, route ip, time 4.0 weeks, DDE = dose-dependent effect

**Q.** Which Activity (Mus musculus [1]) does the source give for `C[C@H]1CO[C@]2(C)Oc3cc(O)c4c(c3C[C@H]12)O[C@@]1(C)OC[C@H](C)[C@H]1C4` here?
**A.** Active

**Q.** And the Activity (Mus musculus [2])?
**A.** Active

**Q.** And the Activity (Mus musculus [3])?
**A.** Active

**Q.** What about the Activity (Mus musculus [4]) of the same molecule?
**A.** Active

**Q.** What about the Activity (Mus musculus [5]) of the same molecule?
**A.** Active

**Q.** What about the Activity (Mus musculus [6]) of the same molecule?
**A.** Active

**Q.** And the Activity [7]?
**A.** Non-Toxic

**Q.** And the Activity [8]?
**A.** Non-Toxic

**Q.** And the Activity [9]?
**A.** Non-Toxic

**Q.** What about the Activity (Mus musculus [10]) of the same molecule?
**A.** Active

**Q.** And the Activity (Mus musculus [11])?
**A.** Active

**Q.** And the Activity (Mus musculus [12])?
**A.** Active

**Q.** What about the Activity (Mus musculus [13]) of the same molecule?
**A.** Active

**Q.** And the Activity (Mus musculus [14])?
**A.** Active

**Q.** What about the Activity (Mus musculus [15]) of the same molecule?
**A.** Active

**Q.** And the Activity (Mus musculus [16])?
**A.** Dde

**Q.** And the Activity (Mus musculus [17])?
**A.** Active

**Q.** And the Activity (Mus musculus [18])?
**A.** Active

**Q.** And the Activity (Mus musculus [19])?
**A.** Active

**Q.** And the inhibition (HepG2)?
**A.** Dde

**Q.** And the Activity (Mus musculus [20])?
**A.** Active

**Q.** And the Activity (Mus musculus [21])?
**A.** Active

**Q.** And the Activity (Mus musculus [22])?
**A.** Active

**Q.** What about the Activity (Mus musculus [23]) of the same molecule?
**A.** Active

**Q.** And the Activity (Mus musculus [24])?
**A.** Active

**Q.** What about the Activity (Mus musculus [25]) of the same molecule?
**A.** Dde

**Q.** And the Activity (Mus musculus [26])?
**A.** Dde

**Q.** And the Activity (Mus musculus [27])?
**A.** Dde
